Test results: US20100184802A1, “Bicycloheteroaryl Compounds as P2X7 Modulators and Uses Thereof” (priority 2006, published 2010)
pIC50: −log10 of the molar value.

Target: T1, P2X7 receptor (IL-1β release from THP-1 cells) (Homo sapiens, UniProt Q99572)
T1 construct: host or cells: THP-1 cells differentiated with LPS and IFN-γ
T1 sequence (Q99572 1-595): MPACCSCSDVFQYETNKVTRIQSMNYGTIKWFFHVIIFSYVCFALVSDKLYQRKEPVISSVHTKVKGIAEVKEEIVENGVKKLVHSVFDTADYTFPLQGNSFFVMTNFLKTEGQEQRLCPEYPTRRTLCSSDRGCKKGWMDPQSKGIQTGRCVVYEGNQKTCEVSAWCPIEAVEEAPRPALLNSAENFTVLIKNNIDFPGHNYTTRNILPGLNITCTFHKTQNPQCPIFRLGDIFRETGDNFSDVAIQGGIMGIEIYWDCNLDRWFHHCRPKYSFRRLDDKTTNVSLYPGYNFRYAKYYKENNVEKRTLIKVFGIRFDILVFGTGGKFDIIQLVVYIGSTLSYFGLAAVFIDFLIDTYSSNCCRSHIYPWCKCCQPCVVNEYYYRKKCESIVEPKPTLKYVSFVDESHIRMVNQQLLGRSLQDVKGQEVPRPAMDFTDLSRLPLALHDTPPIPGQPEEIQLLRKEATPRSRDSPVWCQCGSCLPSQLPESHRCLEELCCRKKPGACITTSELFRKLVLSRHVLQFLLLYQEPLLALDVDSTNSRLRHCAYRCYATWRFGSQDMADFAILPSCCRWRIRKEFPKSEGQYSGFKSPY
Test: IL-1β release assay in differentiated THP-1 cells stimulated with BzATP (Example 9)
Assay type: cell-based
Conditions: for inhibition at 0.3 µM: 0.3 μM concentration; for inhibition at 0.3 µM / inhibition at 0.1 µM: BzATP 250 uM, read-out: IL-1β % Inhib. @ 0.3 or 0.1 μM; for pIC50: released IL-1β as in Example 9, four parameter logistic fit; for inhibition at 0.1 µM: 0.1 μM concentration
Experimental: The cells are then pretreated for 30 minutes with the compound of interest at the appropriate concentration in RPMI media containing 100 IU/mL penicillin, 100 ug/mL streptomycin. […] 30 uL of cell supernatant is then collected and IL-1β levels determined via ELISA (R&D systems Cat. #HSLB50) according to manufacturer's recommendations using the Tecan Safire plate reader. Background adjusted IL-1β levels of drug treated and non-treated cells are used to calculate the percent inhibition.
The compounds set forth in Table 1 were tested for activity in a cellular model as described herein. […] Measurements were made and IC50 values, presented in Table 2, below, were determined by fitting the data to a four parameter logistic equation using GraphPad Prism software (GraphPad Software, Inc). The equation may be expressed by the following formula:
Y=Bottom+(Top−Bottom)/(1+10̂((Log EC50−X)*HillSlope))
Where X is the logarithm of concentration, Y is the response and Y starts at Bottom and goes to Top with a sigmoid shape.

inhibition at 0.3 µM [%] | pIC50 | inhibition at 0.1 µM [%] | SMILES
> 76 | 8.39 |  | CC1(C)CC(CC(=O)Nc2cccc3c(=O)n([C@@H](C(N)=O)c4ccccc4)ccc23)CC(C)(C)C1 [Compound 593, (R)-2-{1-Oxo-5-[2-(3,3,5,5-tetramethylcyclohexyl)-acetylamino]-1H-isoquinolin-2-yl}-2-phenyl-acetamide]
26 to 50 | 6.45 |  | C[C@@H](C(N)=O)n1ccc2c(NC(=O)CC3(O)CCCCCC3)cccc2c1=O [Compound 557]
> 76 | 9.57 |  | NC(=O)Cn1ccc2c(NC(=O)CC34CC5CC(CC(C5)C3)C4)cccc2c1=O [Compound 509]
> 76 | 7.66 |  | CC(C)[C@H](C(=O)O)n1ccc2c(NC(=O)CC34CC5CC(CC(C5)C3)C4)cccc2c1=O [Compound 603]
> 76 | 9.16 |  | C[C@H](C(=O)NC1CC1)n1ccc2c(NC(=O)CC34CC5CC(CC(C5)C3)C4)cccc2c1=O [Compound 598, (R)-2-[5-(2-Adamantan-1-yl-acetyl-amino)-1-oxo-1H-isoquinolin-2-yl]-N-cyclopropyl-propionamide]
51 to 75 |  |  | CC(=O)NCCn1ccc2c(NC(=O)CC3CCCCCC3)cccc2c1=O [Compound 611, N-[2-(2-Acetylamino-ethyl)-1-oxo-1,2-dihydro-isoquinolin-5-yl]-2-cycloheptyl-acetamide]
> 76 | 8.81 |  | O=C(CC12CC3CC(CC(C3)C1)C2)Nc1cccc2c(=O)n(CC3CCCN3)ccc12 (centres unmarked) [Compound 504]
> 76 | 7.47 |  | NC(=O)[C@@H](CC1CCCCC1)n1ccc2c(NC(=O)CC34CC5CC(CC(C5)C3)C4)cccc2c1=O [Compound 513]
> 76 | 8.92 |  | CNC(=O)[C@@H](C(C)C)n1ccc2c(NC(=O)CC34CC5CC(CC(C5)C3)C4)cccc2c1=O [Compound 592, (R)-2-[5-(2-Adamantan-1-yl-acetylamino)-1-oxo-1H-isoquinolin-2-yl]-3,N-dimethyl-butyramide]
 |  | 0 to 25 | CC(O)Cn1ccc2c(NC(=O)C34C[C@@H]5C[C@@H](C[C@@H]3C5)C4)cccc2c1=O (some centres unmarked) [Compound 566]
 |  | 51 to 75 | CC(O)Cn1ccc2c(NC(=O)CC3C[C@@H]4CC[C@H]3C4)cccc2c1=O (some centres unmarked) [Compound 564]
> 76 | 8.08 |  | CC(C)C[C@H](CO)n1ccc2c(NC(=O)CC3CCCCCC3)cccc2c1=O [Compound 590]
 |  | 0 to 25 | CC(O)Cn1ccc2c(NC(=O)[C@H]3CC[C@H](C)CC3)cccc2c1=O (some centres unmarked) [Compound 563]
> 76 | 7.91 |  | C[C@@H](C(N)=O)n1ccc2c(NC(=O)CC3CCCCCC3)cccc2c1=O [Compound 554]
 |  | 51 to 75 | NC(=O)[C@H](Cc1ccccc1)n1ccc2c(NC(=O)CC34CC5CC(CC(C5)C3)C4)cccc2c1=O [Compound 502]
 |  | 0 to 25 | CC(C)(O)Cn1ccc2c(NC(=O)[C@H]3CC[C@H](C)CC3)cccc2c1=O [Compound 568]
 |  | 26 to 50 | CC(C)(O)Cn1ccc2c(NC(=O)CC3C[C@@H]4CC[C@H]3C4)cccc2c1=O (some centres unmarked) [Compound 569]
> 76 | 6.87 |  | CC1(C)CC(C)(C)CC(O)(CC(=O)Nc2cccc3c(=O)n(CCO)ccc23)C1 [Compound 546]
> 76 | 8.74 |  | CC1(C)CC(CC(=O)Nc2cccc3c(=O)n(CCO)ccc23)CC(C)(C)C1 [Compound 584, N-[2-(2-Hydroxy-ethyl)-1-oxo-1,2-dihydro-isoquinolin-5-yl]-2-(3,3,5,5-tetramethylcyclohexyl)-acetamide]
> 76 | 8.83 |  | CC12CC3CC(C)(C1)CC(CC(=O)Nc1cccc4c(=O)n(CC(N)=O)ccc14)(C3)C2 [Compound 523]
> 76 | 7.69 |  | CC(C)[C@H](C(=O)NC1CC1)n1ccc2c(NC(=O)CC3CCCCCC3)cccc2c1=O [Compound 595, (R)-2-[5-(2-Cycloheptyl-acetylamino)-1-oxo-1H-isoquinolin-2-yl]-N-cyclopropyl-3-methyl-butyramide]
 |  | 0 to 25 | CC(C)(O)Cn1ccc2c(NC(=O)[C@@]34C[C@@H]5C[C@@H](C[C@@H]3C5)C4)cccc2c1=O [Compound 570]

inhibition at 0.3 µM [%] | pIC50 | inhibition at 0.1 µM [%] | SMILES
0 to 25 | 6.12 |  | O=C(CC1(O)CCCCCC1)Nc1cccc2c(=O)n(C(CO)CO)ccc12 [Compound 552]
> 76 | 7.42 |  | NC(=O)Cn1ccc2c(NC(=O)CC3CCCCCC3)cccc2c1=O [Compound 561, 2-(5-(2-Cycloheptyl-acetylamino)-1-oxo-1H-isoquinolin-2-yl)-acetamide]
> 76 |  |  | O=C(CC1CCCCCC1)Nc1cccc2c(=O)n(C[C@H]3CCCN3)ccc12 [Compound 576]
> 76 | 8.73 |  | CC(C)C(CO)n1ccc2c(NC(=O)CC3CCCCCC3)cccc2c1=O (centres unmarked) [Compound 538]
> 76 | 8.32 |  | NC(=O)CN1CCc2c(NC(=O)CC34CC5CC(CC(C5)C3)C4)cccc2C1=O [Compound 533]
> 76 | 7.39 |  | NC(=O)[C@H](CO)n1ccc2c(NC(=O)CC3CCCCCC3)cccc2c1=O [Compound 575, (S)-2-[5-(2-Cycloheptyl-acetylamino)-1-oxo-1H-isoquinolin-2-yl]-3-hydroxy-propionamide]
> 76 | 9.69 |  | C[C@@H](CO)n1ccc2c(NC(=O)CC34CC5CC(C)(CC(C)(C5)C3)C4)cccc2c1=O [Compound 524]
> 76 | 8.47 |  | CC(C)[C@H](CO)n1ccc2c(NC(=O)CC3CCCCCC3)cccc2c1=O [Compound 591, 2-Cycloheptyl-N-[2-((R)-1-hydroxymethyl-2-methyl-propyl)-1-oxo-1,2-dihydro-isoquinolin-5-yl]-acetamide]
51 to 75 | 6.69 |  | CC1(C)CCCC(O)(CC(=O)Nc2cccc3c(=O)n(C(CO)CO)ccc23)C1 (centres unmarked) [Compound 553]
> 76 | 8.38 |  | CC(C(N)=O)n1ccc2c(NC(=O)CC34CC5CC(C)(CC(C)(C5)C3)C4)cccc2c1=O (centres unmarked) [Compound 531]
> 76 | 8.42 |  | CC(C)(CO)n1ccc2c(NC(=O)CC34CC5CC(CC(C5)C3)C4)cccc2c1=O [Compound 613, 2-Adamantan-1-yl-N-[2-(2-hydroxy-1,1-dimethyl-ethyl)-1-oxo-1,2-dihydro-isoquinolin-5-yl]acetamide]
0 to 25 | < 6.00 |  | C[C@@H](C(N)=O)n1ccc2c(NC(=O)CC34CC5CC(CC(O)(C5)C3)C4)cccc2c1=O [Compound 574]
0 to 25 | 6.04 |  | O=C(CC1CCCCC1)Nc1cccc2c(=O)n(CCO)ccc12 [Compound 545]
0 to 25 | < 6.00 |  | CC(C)(C)OC(=O)N1CCC(CC(=O)Nc2cccc3c(=O)n(CCO)ccc23)CC1 [Compound 532]
> 76 | 9.03 |  | C[C@H](C(N)=O)n1ccc2c(NC(=O)CC3CC(C)(C)CC(C)(C)C3)cccc2c1=O [Compound 588]
> 76 | 7.04 |  | C[C@H](C(=O)O)n1ccc2c(NC(=O)CC3CCCCCC3)cccc2c1=O [Compound 607, (R)-2-[5-(2-Cycloheptyl-acetylamino)-1-oxo-1H-isoquinolin-2-yl]-propionic acid]
> 76 | 9.83 |  | C[C@@H](CO)N1CCc2c(NC(=O)CC34CC5CC(CC(C5)C3)C4)cccc2C1=O [Compound 527]
> 76 | 7.04 |  | CC(C)(CO)n1ccc2c(NC(=O)CC3CCCCCC3)cccc2c1=O [Compound 614]
26 to 50 | 6.37 |  | NC(=O)Cn1ccc2c(NC(=O)CC3(O)CCCCCC3)cccc2c1=O [Compound 562]
> 76 | 7.35 |  | CC(C)[C@H](C(=O)O)n1ccc2c(NC(=O)CC3CCCCCC3)cccc2c1=O [Compound 610]
> 76 | 7.49 |  | NC(=O)C(CO)n1ccc2c(NC(=O)CC3CCCCCC3)cccc2c1=O (centres unmarked) [Compound 551, 2-[5-(2-Cycloheptyl-acetylamino)-1-oxo-1H-isoquinolin-2-yl]-3-hydroxy-propionamide]
